Test results as given in US6350749B1, “Aminoguanidine hydrazone derivatives, process for producing the same and drugs thereof” (Takeda Chemical Industries, Ltd., priority 1998, dated 2002).

| melting point | SMILES |
| --- | --- |
| 192 to 194 °C | Cl.N=C(N)NN=C1CC(c2ccccc2)Cc2[nH]ccc21 (stereo not drawn) |
| 142 °C (dec.) | Cl.N=C(N)NN=C1CC(c2ccccc2)Cc2c1ccn2Cc1ccccc1 (stereo not drawn) |
| ≥ 300 °C | Cc1ccnc2c1C(=NNC(=N)N)CC(c1ccsc1)C2.Cl (stereo not drawn) |
| 281 to 283 °C (dec.) | Cc1ccnc2c1C(=NNC(=N)N)CC(c1ccsc1Cl)C2.Cl (stereo not drawn) |
| 201 to 202 °C (dec.) | Cc1ccnc2c1C(=NNC(=N)NO)CC(c1ccsc1)C2.Cl (stereo not drawn) |
| 294 °C (dec.) | Cl.N=C(N)N/N=C1\CC(c2ccccc2)Cc2occ(C(N)=O)c21 (stereo not drawn) |
| 270 °C (dec.) | CS(=O)(=O)n1ccc2c1CC(c1ccccc1)CC2=NNC(=N)N.Cl (stereo not drawn) |
| ≥ 300 °C | Cc1ccnc2c1C(=NNC(=N)N)CC(c1cc(Cl)ccc1Cl)C2.Cl (stereo not drawn) |
| 278 to 280 °C (dec.) | Cc1cnnc2c1C(=NNC(=N)N)CC(c1ccsc1)C2.Cl (stereo not drawn) |
| ≥ 300 °C | Cc1cc(=O)[nH]c2c1C(=NNC(=N)N)CC(c1ccsc1)C2.Cl (stereo not drawn) |
| 260 °C (dec.) | CCc1cn(S(C)(=O)=O)c2c1C(=NNC(=N)N)CC(c1ccccc1)C2.Cl (stereo not drawn) |
| 248 °C (dec.) | CS(=O)(=O)O.Cc1ccnc2c1C(=NNC(=N)N)CC(c1cc(Cl)ccc1Cl)C2 (stereo not drawn) |
| 196 °C (dec.) | Cl.N=C(N)NN=C1CC(c2ccccc2Cl)Cc2nncc(-c3ccc(Cl)cc3)c21 (stereo not drawn) |
| 210 to 212 °C | COCc1n[nH]c2c1C(=NNC(=N)N)CC(c1ccccc1Cl)C2.Cl (stereo not drawn) |
| 151 to 153 °C | Cc1nn(Cc2ccccc2)c2c1C(=NNC(=N)N)CC(c1ccccc1Cl)C2.Cl (stereo not drawn) |
| 228 to 230 °C | Cc1ccccc1C1CC(=NNC(=N)N)c2c(C)cn(S(C)(=O)=O)c2C1.Cl (stereo not drawn) |
| 152 to 154 °C | Cc1nn(CCc2ccccc2)c2c1C(=NNC(=N)N)CC(c1ccccc1Cl)C2.Cl (stereo not drawn) |
| 210 °C (dec.) | Cc1nn(CCCc2ccccc2)c2c1C(=NNC(=N)N)CC(c1ccccc1Cl)C2.Cl (stereo not drawn) |
| 170 to 180 °C | Cc1c2c(nn1CCCc1ccccc1)CC(c1ccccc1Cl)CC2=NNC(=N)N.Cl (stereo not drawn) |
| 210 °C (dec.) | Cc1cnnc2c1C(=NNC(=N)NO)CC(c1ccccc1Cl)C2.Cl (stereo not drawn) |
| ≥ 300 °C | Cc1cc[n+]([O-])c2c1C(=NNC(=N)N)CC(c1cc(Cl)sc1Cl)C2.Cl (stereo not drawn) |
| 286 °C (dec.) | Cc1cn(S(C)(=O)=O)c2c1C(=NNC(=N)N)CC(c1ccccc1F)C2.Cl (stereo not drawn) |

| melting point | SMILES |
| --- | --- |
| 249 to 250 °C | Cc1c[n+]([O-])nc2c1C(=NNC(=N)N)CC(c1ccccc1Cl)C2.Cl (stereo not drawn) |
| 256 to 258 °C | Cc1cnnc2c1C(=NNC(=N)N)CC(c1cc(Cl)ccc1Cl)C2.Cl (stereo not drawn) |
| 240 to 243 °C | Cc1ccc(Cl)c(C2CC(=NNC(=N)N)c3c(C)ccnc3C2)c1.Cl (stereo not drawn) |
| 230 to 235 °C | Cc1ccc(F)c(C2CC(=NNC(=N)N)c3c(C)ccnc3C2)c1.Cl (stereo not drawn) |
| 215 to 220 °C | Cc1ccc(Cl)cc1C1CC(=NNC(=N)N)c2c(C)ccnc2C1.Cl (stereo not drawn) |
| 205 to 209 °C | COc1ccc(Cl)cc1C1CC(=NNC(=N)N)c2c(C)ccnc2C1.Cl (stereo not drawn) |
| 202 °C (dec.) | Cc1ccnc2c1C(=NNC(=N)N)CC(c1cc(Cl)ccc1O)C2.Cl (stereo not drawn) |
| 264 to 266 °C | Cc1ccnc2c1C(=NNC(=N)N)CC(c1cc(F)ccc1O)C2.Cl (stereo not drawn) |
| 258 °C (dec.) | Cc1cn(S(C)(=O)=O)c2c1C(=NNC(=N)N)CC(c1ccccc1Cl)C2.Cl (stereo not drawn) |
| 268 °C (dec.) | Cc1ccnc2c1C(=NNC(=N)N)CC(c1cc(F)ccc1Cl)C2.Cl (stereo not drawn) |
| 240 to 242 °C | Cc1ccc(Cl)c(C2CC(=NNC(=N)N)c3c(C)cnnc3C2)c1.Cl (stereo not drawn) |
| 240 °C (dec.) | Cc1ccc(F)cc1C1CC(=NNC(=N)N)c2c(C)cnnc2C1.Cl (stereo not drawn) |
| ≥ 300 °C | Cc1cnnc2c1C(=NNC(=N)N)CC(c1cc(Cl)ccc1F)C2.Cl (stereo not drawn) |
| 297 °C (dec.) | Cc1cn(S(C)(=O)=O)c2c1C(=NNC(=N)N)CC(c1cccs1)C2.Cl (stereo not drawn) |
| 252 to 256 °C | Cc1ccc(S(=O)(=O)n2ccc3c2CC(c2ccccc2)CC3=NNC(=N)N)cc1.Cl (stereo not drawn) |
| 176 °C (dec.) | Cc1c[nH]c2c1C(=NNC(=N)N)CC(c1ccccc1)C2.Cl (stereo not drawn) |
| 202 °C (dec.) | COc1ccccc1C1CC(=NNC(=N)N)c2c(C)n[nH]c2C1.Cl (stereo not drawn) |
| 158 to 160 °C | CCc1c[nH]c2c1C(=NNC(=N)N)CC(c1ccccc1)C2.Cl (stereo not drawn) |
| 285 °C (dec.) | Cc1coc2c1/C(=N/NC(=N)N)CC(c1cccc(Br)c1)C2.Cl (stereo not drawn) |
| 266 °C (dec.) | Cc1ccccc1C1CC(=NNC(=N)N)c2c(C)coc2C1.Cl (stereo not drawn) |
| 235 to 236 °C | Cc1ccc(C)c(C2C/C(=N\NC(=N)N)c3c(C)coc3C2)c1.Cl (stereo not drawn) |
| 215 °C (dec.) | Cc1cc2c([nH]1)CC(c1ccccc1)CC2=NNC(=N)N.Cl (stereo not drawn) |

| melting point | SMILES |
| --- | --- |
| 300 °C (dec.) | Cc1coc2c1/C(=N/NC(=N)N)CC(c1ccccc1Cl)C2.Cl (stereo not drawn) |
| 279 °C (dec.) | COc1ccccc1C1C/C(=N\NC(=N)N)c2c(C)coc2C1.Cl (stereo not drawn) |
| ≥ 300 °C | Cc1coc2c1/C(=N/NC(=N)N)CC(c1ccco1)C2.Cl (stereo not drawn) |
| 287 °C (dec.) | Cc1ccc(C2Cc3occc3/C(=N/NC(=N)N)C2C)s1.Cl (stereo not drawn) |
| 283 °C (dec.) | Cl.N=C(N)N/N=C1\CC(c2ccc(F)cc2)Cc2occ(C(F)(F)F)c21 (stereo not drawn) |
| 289 °C (dec.) | Cl.N=C(N)N/N=C1\CC(c2ccccc2Br)Cc2occ(C(F)(F)F)c21 (stereo not drawn) |
| 260 °C (dec.) | CCOC(=O)c1coc2c1/C(=N/NC(=N)N)CC(c1ccccc1)C2.Cl (stereo not drawn) |
| 218 °C (dec.) | Cc1ccccc1C1CC(=NNC(=N)N)c2c(C)ccnc2C1.Cl (stereo not drawn) |
| 260 to 262 °C | Cc1ccc(C)c(C2CC(=NNC(=N)N)c3c(C)ccnc3C2)c1.Cl (stereo not drawn) |
| 286 °C (dec.) | Cc1ccnc2c1C(=NNC(=N)N)CC(c1ccc(F)cc1F)C2.Cl (stereo not drawn) |
| 270 to 272 °C | Cc1ccnc2c1C(=NNC(=N)N)CC(c1cccc(Cl)c1Cl)C2.Cl (stereo not drawn) |
| ≥ 300 °C | Cc1ccnc2c1C(=NNC(=N)N)CC(c1c(Cl)cccc1Cl)C2.Cl (stereo not drawn) |
| 192 °C (dec.) | COc1ccccc1C1CC(=NNC(=N)N)c2c(C)ccnc2C1.Cl (stereo not drawn) |
| 267 °C (dec.) | Cc1ccnc2c1C(=NNC(=N)N)CC(c1ccncc1)C2.Cl (stereo not drawn) |
| 230 °C (dec.) | Cc1cn(C)c2c1C(=NNC(=N)N)CC(c1ccccc1)C2.Cl (stereo not drawn) |
| ≥ 300 °C | Cc1ccc2c(n1)CC(c1ccccc1)CC2=NNC(=N)N.Cl (stereo not drawn) |
| 270 °C (dec.) | Cc1cc(C)c2c(n1)CC(c1ccccc1)CC2=NNC(=N)N.Cl (stereo not drawn) |
| 227 °C (dec.) | Cc1cc(C)c2c(n1)CC(c1ccccc1Cl)CC2=NNC(=N)N.Cl (stereo not drawn) |
| 206 °C (dec.) | Cc1ccc2c(n1)CC(c1ccccc1C)CC2=NNC(=N)N.Cl (stereo not drawn) |
| 203 to 204 °C (dec.) | Cc1ccccc1C1=CC(=NNC(=N)N)c2c(C)ccnc21.Cl |
| 240 °C (dec.) | CNC(=N)NN=C1CC(c2ccccc2Cl)Cc2[nH]nc(C)c21.Cl (stereo not drawn) |
| 190 to 192 °C (dec.) | Cc1ccc(C)c(C2CC(=NNC(=N)NO)c3c(C)ccnc3C2)c1.Cl (stereo not drawn) |

| SMILES | melting point |
| --- | --- |
| Cc1ccnc2c1C(=NNC(=N)N)CC(c1cc(Cl)sc1Cl)C2.Cl (stereo not drawn) | ≥ 300 °C |
| Cc1ccnc2c1C(=NNC(=N)N)CC(c1cc(Cl)sc1Cl)C2.O=S(=O)(O)O (stereo not drawn) | 239 to 242 °C |
| Cc1ccnc2c1C(=NNC(=N)N)CC(c1cc(Cl)sc1Cl)C2.O=[N+]([O-])O (stereo not drawn) | 167 °C (dec.) |
